Source: patent US10703765B2 (priority 2014, dated 2020)
Structures can show the parent of a compound that is named as a salt. Where two headings read alike, the source gives them in different places.

Target: human σ1 receptor (Homo sapiens, UniProt Q99720)
Experiment: biochemical
Assay type: binding
Parameters: μ and σ1 dual binding: key to the marks not given beside the values
[1] = read-out: μ and σ1 dual binding

human σ1 receptor, sequence (Q99720 whole entry): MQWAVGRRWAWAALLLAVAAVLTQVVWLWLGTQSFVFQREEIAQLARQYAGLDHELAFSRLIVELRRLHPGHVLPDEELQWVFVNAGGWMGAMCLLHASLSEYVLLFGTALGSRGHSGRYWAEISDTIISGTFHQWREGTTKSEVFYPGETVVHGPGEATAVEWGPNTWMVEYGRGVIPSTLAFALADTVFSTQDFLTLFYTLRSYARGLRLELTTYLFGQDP

Compound	Ki [1]	Ki	further results
Cc1cc(C)n(CCN2CCC3(CC2)CN(c2ccccc2)C(=O)C(C)O3)n1.Cl (stereo not drawn) [Example 77, 9-(2-(3,5-dimethyl-1H-pyrazol-1-yl)ethyl)-2-methyl-4-phenyl-1-oxa-4,9-diazaspiro[5.5]undecan-3-one hydrochloride]			μ and σ1 dual binding: ++
CC1OC2(CCN(CC(=O)N3CCOCC3)CC2)CN(c2ccccc2)C1=O (stereo not drawn) [Example 78, 2-methyl-9-(2-morpholino-2-oxoethyl)-4-phenyl-1-oxa-4,9-diazaspiro[5.5]undecan-3-one hydrochloride]	> 500 nM		
COc1ccccc1CCN1CCC2(CC1)CN(Cc1ccccn1)C(=O)CO2 [Example 79, 9-(2-methoxyphenethyl)-4-(pyridin-2-ylmethyl)-1-oxa-4,9-diazaspiro[5.5]undecan-3-one]	< 500 nM		
O=C1C(=CC2CCOCC2)OC2(CCN(CCc3ccccc3)CC2)CN1c1ccccc1F [Example 80, 4-(2-fluorophenyl)-9-phenethyl-2-((tetrahydro-2H-pyran-4-yl)methylene)-1-oxa-4,9-diazaspiro[5.5]undecan-3-one]		< 500 nM	
CC(C)CCN1CCC2(CC1)CN(c1ccccc1F)C(=O)C(C)O2.Cl (stereo not drawn) [Example 81, 4-(2-fluorophenyl)-9-isopentyl-2-methyl-1-oxa-4,9-diazaspiro[5.5]undecan-3-one hydrochloride]			μ and σ1 dual binding: ++
CC1OC2(CCN(CC3CC3)CC2)CN(c2ccccc2F)C1=O (stereo not drawn) [Example 82, 9-(cyclopropylmethyl)-4-(2-fluorophenyl)-2-methyl-1-oxa-4,9-diazaspiro[5.5]undecan-3-one hydrochloride]	> 500 nM		
COc1cccc(CCN2CCC3(CC2)CN(c2ccccc2F)C(=O)C(C)O3)c1 (stereo not drawn) [Example 83, 4-(2-fluorophenyl)-9-(3-methoxyphenethyl)-2-methyl-1-oxa-4,9-diazaspiro[5.5]undecan-3-one hydrochloride]		< 100 nM	
O=C1COC2(CCN(CCc3ccccn3)CC2)CN1Cc1ccccn1 [Example 84, 9-(2-(pyridin-2-yl)ethyl)-4-(pyridin-2-ylmethyl)-1-oxa-4,9-diazaspiro[5.5]undecan-3-one]			μ and σ1 dual binding (combined class from Ki-σ1 (human σ1 receptor, A1) and Ki-μ (human μ-opioid receptor, A2) radioligand binding): ++
CC(C)=C1OC2(CCN(CCc3ccccc3)CC2)CN(c2ccccc2F)C1=O [Example 85, 4-(2-fluorophenyl)-9-phenethyl-2-(propan-2-ylidene)-1-oxa-4,9-diazaspiro[5.5]undecan-3-one]	> 500 nM		
O=C1COC2(CCN(CCc3ccccc3)CC2)CN1Cc1ccccn1 [Example 86, 9-phenethyl-4-(pyridin-2-ylmethyl)-1-oxa-4,9-diazaspiro[5.5]undecan-3-one hydrochloride]	< 100 nM		
COc1ccccc1CCN1CCC2(CC1)CN(Cc1ccccc1)CCO2 [Example 87, 4-benzyl-9-(2-methoxyphenethyl)-1-oxa-4,9-diazaspiro[5.5]undecane dihydrochloride]	> 500 nM		
CC1OC2(CCN(CCc3ccccc3)CC2)CN(c2cscn2)C1=O (stereo not drawn) [Example 88, 2-methyl-9-phenethyl-4-(thiazol-4-yl)-1-oxa-4,9-diazaspiro[5.5]undecan-3-one hydrochloride]		< 500 nM	
CC1OC2(CCN(CCc3cccc(F)n3)CC2)CN(c2ccccc2F)C1=O (stereo not drawn) [Example 89, 4-(2-fluorophenyl)-9-(2-(6-fluoropyridin-2-yl)ethyl)-2-methyl-1-oxa-4,9-diazaspiro[5.5]undecan-3-one hydrochloride]		< 500 nM	
O=C1N(c2ccccc2)CC2(CCN(CCc3ccccn3)CC2)OC12CC2 [Example 90, 12-phenyl-8-[2-(pyridin-2-yl)ethyl]-4-oxa-8,12-diazaspiro[2.1.5.3]tridecan-13-one]	< 100 nM		
CC1OC2(CCN(CCc3ccc(C(F)(F)F)nc3)CC2)CN(c2ccccc2F)C1=O (stereo not drawn) [Example 91, 4-(2-fluorophenyl)-2-methyl-9-(2-(6-(trifluoromethyl)pyridin-3-yl)ethyl)-1-oxa-4,9-diazaspiro[5.5]undecan-3-one dihydrochloride]	< 500 nM		
O=C1N(c2ccccc2)CC2(CCN(CCc3cccc([N+](=O)[O-])c3)CC2)OC12CC2 [Example 92, 8-(3-nitrophenethyl)-12-phenyl-4-oxa-8,12-diazaspiro[2.1.5.3]tridecan-13-one]	> 500 nM		
CNS(=O)(=O)c1cccc(CCN2CCC3(CC2)CN(c2ccccc2)C(=O)C(C)O3)c1 (stereo not drawn) [Example 93, N-methyl-3-(2-(2-methyl-3-oxo-4-phenyl-1-oxa-4,9-diazaspiro[5.5]undecan-9-yl)ethyl)benzenesulfonamide]		< 500 nM	
CC1OC2(CCN(CCc3ccc(F)cn3)CC2)CN(c2ccccc2)C1=O (stereo not drawn) [Example 94, 9-(2-(5-fluoropyridin-2-yl)ethyl)-2-methyl-4-phenyl-1-oxa-4,9-diazaspiro[5.5]undecan-3-one hydrochloride]		< 500 nM	
CC1OC2(CCN(CCc3nccs3)CC2)CN(c2ccccc2)C1=O (stereo not drawn) [Example 95, 2-methyl-4-phenyl-9-(2-(thiazol-2-yl)ethyl)-1-oxa-4,9-diazaspiro[5.5]undecan-3-one hydrochloride]		< 500 nM	
CC1OC2(CCN(CCc3ncccc3F)CC2)CN(c2ccccc2)C1=O (stereo not drawn) [Example 96, 9-(2-(3-fluoropyridin-2-yl)ethyl)-2-methyl-4-phenyl-1-oxa-4,9-diazaspiro[5.5]undecan-3-one hydrochloride]		< 500 nM	
O=C(CN1CCC2(CC1)CN(c1ccccc1)C(=O)C1(CC1)O2)c1ccccc1 [Example 97, 8-(2-oxo-2-phenylethyl)-12-phenyl-4-oxa-8,12-diazadispiro[2.1.5.3]tridecan-13-one]	> 500 nM		
O=C1COC2(CCN(CCc3ccccn3)CC2)CN1Cc1ccc(C(F)(F)F)cn1 [Example 98, 9-(2-(pyridin-2-yl)ethyl)-4-((5-(trifluoromethyl)pyridin-2-yl)methyl)-1-oxa-4,9-diazaspiro[5.5]undecan-3-one hydrochloride]	< 500 nM		
O=C(CN1CCC2(CC1)CN(Cc1ccc(C(F)(F)F)cn1)C(=O)CO2)c1ccccc1 [Example 99, 9-(2-oxo-2-phenylethyl)-4-((5-(trifluoromethyl)pyridin-2-yl)methyl)-1-oxa-4,9-diazaspiro[5.5]undecan-3-one]	> 500 nM		
CC1OC2(CCN(CCC(=O)N(C)c3ccccc3)CC2)CN(c2ccccc2)C1=O (stereo not drawn) [Example 100, N-methyl-3-(2-methyl-3-oxo-4-phenyl-1-oxa-4,9-diazaspiro[5.5]undecan-9-yl)-N-phenylpropanamide hydrochloride]	< 500 nM		
CC1OC2(CCN(CCc3ccccn3)CC2)CN(c2cnccc2C(F)(F)F)C1=O.Cl (stereo not drawn) [Example 101, 2-methyl-9-(2-(pyridin-2-yl)ethyl)-4-(4-(trifluoromethyl)pyridin-3-yl)-1-oxa-4,9-diazaspiro[5.5]undecan-3-one hydrochloride]			μ and σ1 dual binding: ++
COc1cccc(CCN2CCC3(CC2)CN(c2ccccc2)C(=O)C(C)O3)n1 (stereo not drawn) [Example 102, 9-(2-(6-methoxypyridin-2-yl)ethyl)-2-methyl-4-phenyl-1-oxa-4,9-diazaspiro[5.5]undecan-3-one hydrochloride]		< 500 nM	
O=C1COC2(CCN(CCc3cccc([N+](=O)[O-])c3)CC2)CN1Cc1ccc(C(F)(F)F)cn1 [Example 103, 9-(3-nitrophenethyl)-4-((5-(trifluoromethyl)pyridin-2-yl)methyl)-1-oxa-4,9-diazaspiro[5.5]undecan-3-one]	> 500 nM		
